In the supplement of paper PMC10307832:

Assays:
Experiment in all cases: relative viability (nuclei count vs DMSO), 5 days (fraction); higher = more cells survive
[1] = system: NCI-H1993
In short: (§1)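 Medians of duplicate plates are given as relative viability. That measure is the nuclei count in treated wells divided by the count in vehicle wells. Counts were taken on 4× images of lung cancer cell lines in 1536-well plates, 5 days after pin-tool dosing the day after seeding with one drug alone or a fixed anchor-drug dose plus five library-drug doses (not always all listed) in √10 steps.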

[2] = system: NCI-H2342
In short: as §1

[3] = system: ChaGo-K-1
In short: as §1

[4] = system: NCI-H2405
In short: as §1

[5] = system: NCI-H23
In short: as §1

[6] = system: NCI-H1734
In short: as §1

[7] = system: NCI-H2228
In short: as §1

[8] = system: NCI-H1975
In short: as §1

[9] = system: NCI-H1355
In short: as §1

[10] = system: LCLC-97TM1
In short: as §1

[11] = system: NCI-H2126
In short: as §1

[12] = system: NCI-H596
In short: as §1

[13] = system: HOP-62
In short: as §1

[14] = system: NCI-H358
In short: as §1

[15] = system: NCI-H1623
In short: as §1

[16] = system: NCI-H460
In short: as §1

[17] = system: PC-3 [JPC-3]
In short: as §1

[18] = system: LK-2
In short: as §1

[19] = system: NCI-H1944
In short: as §1

[20] = system: NCI-H1755
In short: as §1

[21] = system: NCI-H1650
In short: as §1

[22] = system: NCI-H727
In short: as §1

Nc1cccc2c1CN(C1CCC(=O)NC1=O)C2=O (stereo not given) [Lenalidomide] + CCNC(=O)c1noc(-c2cc(C(C)C)c(O)cc2O)c1-c1ccc(CN2CCOCC2)cc1 [Luminespib] (partner 0.01 µM)
relative viability ([1]; first compound 0.253 µM): 0.66 | relative viability ([1]; first compound 0.8 µM): 0.726 | relative viability ([1]; first compound 2.53 µM): 0.767 | relative viability ([1]; first compound 8 µM): 0.743 | relative viability ([2]; first compound 0.253 µM): 0.706 | relative viability ([2]; first compound 0.8 µM): 0.744 | relative viability ([2]; first compound 2.53 µM): 0.806 | relative viability ([2]; first compound 8 µM): 0.56 | relative viability ([3]; first compound 0.253 µM): 0.649 | relative viability ([3]; first compound 0.8 µM): 0.506 | relative viability ([3]; first compound 2.53 µM): 0.788 | relative viability ([3]; first compound 8 µM): 0.541 | relative viability ([4]; first compound 0.253 µM): 0.665 | relative viability ([4]; first compound 0.8 µM): 0.76 | relative viability ([4]; first compound 2.53 µM): 0.757 | relative viability ([4]; first compound 8 µM): 0.644 | relative viability ([5]; first compound 0.253 µM): 0.218 | relative viability ([5]; first compound 0.8 µM): 0.173 | relative viability ([5]; first compound 2.53 µM): 0.196 | relative viability ([5]; first compound 8 µM): 0.228 | relative viability ([6]; first compound 0.253 µM): 0.157 | relative viability ([6]; first compound 0.8 µM): 0.202 | relative viability ([6]; first compound 2.53 µM): 0.206 | relative viability ([6]; first compound 8 µM): 0.196 | relative viability ([7]; first compound 0.253 µM): 0.156 | relative viability ([7]; first compound 0.8 µM): 0.103 | relative viability ([7]; first compound 2.53 µM): 0.115 | relative viability ([7]; first compound 8 µM): 0.189 | relative viability ([8]; first compound 0.253 µM): 0.194 | relative viability ([8]; first compound 0.8 µM): 0.235 | relative viability ([8]; first compound 2.53 µM): 0.251 | relative viability ([8]; first compound 8 µM): 0.196 | relative viability ([9]; first compound 0.253 µM): 0.651 | relative viability ([9]; first compound 2.53 µM): 0.812 | relative viability ([9]; first compound 8 µM): 0.558 | relative viability ([10]; first compound 0.253 µM): 0.763 | relative viability ([10]; first compound 0.8 µM): 0.707 | relative viability ([10]; first compound 2.53 µM): 0.848 | relative viability ([10]; first compound 8 µM): 0.761 | relative viability ([11]; first compound 0.253 µM): 0.915 | relative viability ([11]; first compound 0.8 µM): 0.935 | relative viability ([11]; first compound 2.53 µM): 0.996 | relative viability ([11]; first compound 8 µM): 0.871 | relative viability ([12]; first compound 0.253 µM): 0.967 | relative viability ([12]; first compound 2.53 µM): 1.29 | relative viability ([12]; first compound 8 µM): 0.985 | relative viability ([13]; first compound 0.253 µM): 0.961 | relative viability ([13]; first compound 0.8 µM): 0.843 | relative viability ([13]; first compound 2.53 µM): 0.899 | relative viability ([13]; first compound 8 µM): 0.938 | relative viability ([14]; first compound 0.253 µM): 0.419 | relative viability ([14]; first compound 0.8 µM): 0.377 | relative viability ([14]; first compound 2.53 µM): 0.437 | relative viability ([14]; first compound 8 µM): 0.576 | relative viability ([15]; first compound 0.253 µM): 0.413 | relative viability ([15]; first compound 0.8 µM): 0.474 | relative viability ([15]; first compound 2.53 µM): 0.557 | relative viability ([15]; first compound 8 µM): 0.399 | relative viability ([16]; first compound 0.253 µM): 0.0318 | relative viability ([16]; first compound 0.8 µM): 0.0303 | relative viability ([16]; first compound 2.53 µM): 0.035 | relative viability ([16]; first compound 8 µM): 0.0323 | relative viability ([17]; first compound 0.253 µM): 0.651 | relative viability ([17]; first compound 0.8 µM): 0.729 | relative viability ([17]; first compound 2.53 µM): 0.616 | relative viability ([17]; first compound 8 µM): 0.572 | relative viability ([18]; first compound 0.253 µM): 0.195 | relative viability ([18]; first compound 0.8 µM): 0.179 | relative viability ([18]; first compound 2.53 µM): 0.173 | relative viability ([18]; first compound 8 µM): 0.193 | relative viability ([19]; first compound 0.253 µM): 0.675 | relative viability ([19]; first compound 0.8 µM): 0.777 | relative viability ([19]; first compound 2.53 µM): 0.871 | relative viability ([19]; first compound 8 µM): 0.502 | relative viability ([20]; first compound 0.253 µM): 0.422 | relative viability ([20]; first compound 0.8 µM): 0.42 | relative viability ([20]; first compound 2.53 µM): 0.596 | relative viability ([20]; first compound 8 µM): 0.655 | relative viability ([21]; first compound 0.8 µM): 0.197 | relative viability ([21]; first compound 2.53 µM): 0.196 | relative viability ([21]; first compound 8 µM): 0.202 | relative viability ([22]; first compound 0.253 µM): 0.45 | relative viability ([22]; first compound 0.8 µM): 0.316 | relative viability ([22]; first compound 2.53 µM): 0.473 | relative viability ([22]; first compound 8 µM): 0.477
